The values below come from PMC5462828 (Scientific Reports, 2017).

Assay [1] concerns RXFP1. In words: cGMP accumulation in human primary vascular cells and cardiac fibroblasts. Type of assay: cell-based. Conditions: HUAEC, cells that do not express cell surface RXFP1; 30 min. As for the experimental part:
(§1) cAMP and cGMP accumulation was determined as previously described, [16]. Briefly, HEK293 cells were plated in 96-well plates (5 × 10^4 cells/well) and human primary cells were plated into 24-well plates (1 × 10^5 cells/well) and grown overnight to achieve a confluent monolayer. Prior to stimulation, HEK cells were serum-starved in DMEM containing 0.5% FBS v/v and primary cells were serum-starved in M199 medium for 4–6 hours. Where appropriate, cells were pre-incubated with mSIRK (5 μM, 30 min), mSIRK control peptide L9A (5 μM, 30 min), gallein (100 μM, 30 min), Wortmannin (100 nM, 30 min), NF023 (10 μM, 30 min) and NF449 (10 μM, 30 min). Levels of cAMP and cGMP were detected according to the manufacturer’s instructions (Perkin-Elmer, Australia).

The target of assay [2] is T1, RXFP1 (Homo sapiens, UniProt Q9HBX9).
T1 sequence (Q9HBX9 1-757): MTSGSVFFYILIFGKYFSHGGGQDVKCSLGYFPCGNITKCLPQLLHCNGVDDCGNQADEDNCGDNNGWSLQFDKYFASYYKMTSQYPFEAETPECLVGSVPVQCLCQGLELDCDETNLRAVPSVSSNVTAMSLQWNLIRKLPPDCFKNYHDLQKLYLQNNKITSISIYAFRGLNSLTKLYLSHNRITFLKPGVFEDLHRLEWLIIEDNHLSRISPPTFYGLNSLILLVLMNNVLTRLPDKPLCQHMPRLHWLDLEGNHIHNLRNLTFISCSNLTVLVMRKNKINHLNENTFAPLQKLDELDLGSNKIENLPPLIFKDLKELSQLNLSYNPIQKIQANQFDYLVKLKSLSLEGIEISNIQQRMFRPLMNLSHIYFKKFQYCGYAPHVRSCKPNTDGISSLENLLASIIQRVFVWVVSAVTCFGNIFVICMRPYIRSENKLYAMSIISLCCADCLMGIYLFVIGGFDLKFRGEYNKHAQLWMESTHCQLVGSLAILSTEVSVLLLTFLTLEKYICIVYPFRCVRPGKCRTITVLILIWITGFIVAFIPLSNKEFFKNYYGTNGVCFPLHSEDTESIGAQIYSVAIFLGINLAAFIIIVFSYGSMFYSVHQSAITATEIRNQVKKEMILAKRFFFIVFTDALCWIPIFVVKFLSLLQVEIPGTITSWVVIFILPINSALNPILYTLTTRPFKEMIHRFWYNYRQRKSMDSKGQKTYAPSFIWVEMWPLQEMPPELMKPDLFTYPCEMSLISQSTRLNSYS
Described as above. In kind it is cell-based. Conditions: for cGMP accumulation, maximum: DEA 10 μM, 5 min. The procedure: as §1

The next assay relates to monkey RXFP1. On the set-up: method as in PMID 26866459. The settings on record: cited from earlier work.
Assay [3] has as its system ML290-mediated cAMP accumulation. The experiment in a line: Effect of signalling pathway inhibitors on ML290-mediated cAMP accumulation in human primary vascular cells. In kind it is cell-based. As for the experimental part: cAMP and cGMP accumulation was determined as previously described, [16]. Briefly, HEK293 cells were plated in 96-well plates (5 × 10^4 cells/well) and human primary cells were plated into 24-well plates (1 × 10^5 cells/well) and grown overnight to achieve a confluent monolayer. Prior to stimulation, HEK cells were serum-starved in DMEM containing 0.5% FBS v/v and primary cells were serum-starved in M199 medium for 4–6 hours. […] Levels of cAMP and cGMP were detected according to the manufacturer’s instructions (Perkin-Elmer, Australia).

A further assay relates to pig RXFP1. On the set-up: method as in PMID 26866459. Conditions: cited from earlier work.
Another assay concerns T2, RXFP1 and GαoB.
T2 construct: forward primer encodes M-D-S-K-G-S-S, not the native RXFP1 start (N); expressed in transfected cells; host or cells: HEK293T cells stably expressing RXFP1-Rluc8, transiently co-transfected with the G protein subunits
In words: Real-time kinetic BRET, RXFP1-Rluc8 / GαoB. In kind it is cell-based, human. The settings on record: HEK293T co-expressing RXFP1-Rluc8, Gγ2-Venus, Gβ1, GαoB; H2 relaxin 100 nM, ML290 100 nM or 10 μM. The procedure:
HEK293 cell were seeded in 6-well plates at a density of 600,000 cells per well and transfected with constructs encoding the tagged receptors and signalling proteins. 24 h later cells were harvested in HEPES-buffered phenol red-free medium containing 5% FBS and plated out in a white 96-well plate (Nunc) that was incubated at 37 °C under 5% CO2. BRET assays were performed 48 h after transfection as described previously, [52]. Medium was replaced with phenol-red-free-DMEM supplemented with 5% FBS plus 5 μM coelenterazine h. BRET measurements were made at 37 °C using the PHERAstar Omega plate reader with Omega software (BMG LABTECH, Germany). Filtered light emissions were simultaneously measured in each of the “donor wavelength window” (475 ± 15 nm for Rluc8 with coelenterazine h) and “acceptor wavelength window” (535 ± 15 nm for Venus). Cells were assayed before and after treatment with ligands or 5% FBS phenol-red-free-DMEM medium containing 0.01% w/v BSA (vehicle). The BRET signal was calculated as previously described.
(In general: In BRET a luciferase serves as donor, and the signal depends on an acceptor being close.)

For a further assay, the system named is MMP-2. In words: Gelatin zymography of MMP-2 in human cardiac fibroblasts. Type of assay: cell-based. The settings on record: HCFs; 72 hours; ML290 1 μM, H2 relaxin 0.1 μM. The procedure: Changes in matrix metalloproteinases-2 (MMP-2; gelatinase A) activity that were secreted from HCFs into the cell media over a 72 hour experimental period, were assessed by gelatin zymography as described previously, [45]. […] Cells were used between passages 1–4, while all experiments were performed four separate times in duplicate. The optical density (OD) of MMP-2 was measured using a GS710 Calibrated Imaging Densitomer (Bio-Rad Laboratories, Hercules, CA, USA), and the mean ± SE OD of MMP-2 in each treated group was expressed as the relative ratio of the values in the untreated control group.

Another assay concerns AVPR1B. On the set-up: method as in PMID 23764525. Conditions: cited from earlier work.

“Also recorded” adds a separate entry of the source. Where two headings read alike, the source gives them in different places.

As to `CC(C)Oc1ccccc1C(=O)Nc1ccccc1C(=O)Nc1cccc(S(=O)(=O)C(F)(F)F)c1` [ML290, 2-Isopropoxy-N-(2-(3-(trifluoromethylsulfonyl)phenylcarbamoyl)phenyl) benzamide], in the assay with RXFP1 [1], the cGMP accumulation result is reported as “no effect”. In addition, the “cGMP accumulation, maximum” value is on record as 40.6 ± 5.6 % of the DEA response at RXFP1 [2] (HCAEC, 30 min); 21.0 ± 4.1 % of the DEA response on RXFP1 [2] (HUASMC, 30 min); 23.5 ± 4.4 % of the DEA response on RXFP1 [2] (HUVEC, 30 min); 11.0 ± 3.4 % of the DEA response at RXFP1 [2] (HUVSMC, 30 min). Besides, the Emax at RXFP1 [2] (HUVEC, read-out: cGMP accumulation efficacy (Emax), HUVEC, 30 min) was 23.5%; on RXFP1 [2] (read-out: cGMP accumulation efficacy (Emax), HCAEC, 30 min) it was 40.6%; on RXFP1 [2] (read-out: cGMP accumulation efficacy (Emax), HCF), 45.3%; at RXFP1 [2] (read-out: cGMP accumulation efficacy (Emax), HUASMC, 30 min) it was 21%; at RXFP1 [2] (read-out: cGMP accumulation efficacy (Emax), HUVSMC, 30 min), 11%. Besides, the “agonist action at monkey RXFP1” value in the assay with monkey RXFP1 is “activates”. Moreover, the “ML290-mediated cAMP accumulation, ML290 alone” value in assay [3] (HCAECs, ML290 10 μM, 30 min) was 22.5 ± 5.5 % response to 50 μM forskolin; in assay [3] (HUASMCs, control of NF449 and mSIRK experiments), 18.8 ± 4.3 % response to 50 μM forskolin; in assay [3] (HUASMCs, control of gallein and Wortmannin experiments) it was 16.7 ± 3.4 % response to 50 μM forskolin; in assay [3] (HUVECs, ML290 10 μM, 30 min), 16.4 ± 2.5 % response to 50 μM forskolin; in assay [3] (HUVSMCs, control of NF449 and mSIRK experiments), 18.8 ± 8.0 % response to 50 μM forskolin; in assay [3] (HUVSMCs, control of gallein and Wortmannin experiments) it was 12.6 ± 2.4 % response to 50 μM forskolin. In the assay on pig RXFP1, the “agonist action at pig RXFP1” value was “activates”. In the assay on RXFP1 and GαoB, the “ligand-induced BRET, RXFP1 - GαoB interaction” value was “promoted interactions; also recorded: moved in the opposite direction to that to H2 relaxin”. For the same compound, in the assay on MMP-2, the “increase of MMP-2 expression versus untreated controls” value is on record as about 40%. In the assay with AVPR1B, the “action at AVPR1B” value is reported as “little or no action”.

In general, Emax refers to the size of the effect at its maximum, as opposed to the concentration needed.
